Data as given in patent US8541379B2 (Ajinomoto Co., Inc., priority 2009, dated 2013).
Marks after values point to notes of the source that are not given here.

Experiments:
Format in all cases: in vivo, human
[1] = Quantitative sensory evaluation test of kokumi-imparting activity; conditions: n=4
Procedure: This quantitative sensory evaluation test was carried out according to the following procedures: The intensity of the kokumi-imparting activity observed for each test compound was determined as a value observed when blending 0.00001 to 0.5 g/dL of the corresponding test compound with the distilled water containing sodium glutamate (0.05 g/dL), inosinic acid monophosphate (0.05 g/dL), and sodium chloride (0.5 g/dL). […] The evaluation criteria are assumed to be as follows: control: 0 point; strong: 3 points; very strong: 5 points. Moreover, to clarify the criteria, the initial taste and the middle/after taste of γ-Glu-Val-Gly were set at 3.0 points, respectively. The scoring or rating was carried out using the method of line scale and more specifically, it was carried out by writing each corresponding score on a straight line on which points corresponding to −5˜0˜5 had been indicated. The panelists used in this test were defined to be persons who had been engaged in the development of seasonings for foods over not less than one year of the cumulative time period and who could judge that the difference in the titer between γ-Glu-Cys-Gly and γ-Glu-Val-Gly added to a solution having umami/salty taste is about 10 times (while confirming the ability of these persons at regular intervals). The evaluation was carried out at n (the number of panelists used)=4. The term “initial taste” means the taste which develops from 0 to 2 seconds after the sample is placed in the panelist's mouth, while the term “middle/after taste” means the taste which develops thereafter.
In addition, γ-Glu-Val-Gly, γ-Glu-Cys, γ-Glu-Val, γ-Glu-Ala and γ-Glu-Ser were likewise inspected for their kokumi-imparting effect according to the same procedures used above.

[2] = Paired comparison sensory test, solution of tomato catsup; conditions: 33.3% tomato catsup solution, N=9, significant level of 1%
Procedure: More specifically, the sensory evaluation test was carried out according to the following procedures: Commercially available tomato catsup for popular use was dispersed in hot water in a concentration of 33.3% by mass to thus form a solution of tomato catsup. This solution was admixed with γ-Glu-Nva, γ-Glu-Cys-Gly, or γ-Glu-Abu as a test compound. According to the paired comparison test method (pair test), the panelists were requested to comparatively evaluate the following three samples and to judge whether “any of them was preferred or favorable since it could enhance the flavor and taste of the solution of tomato catsup without changing the balance between them”: (1) 0.02% by mass of γ-Glu-Cys-Gly whose kokumi-imparting activity was identical to 0.0004% by mass of γ-Glu-Nva; (2) 0.0004% by mass of γ-Glu-Abu, the amount of which was identical to 0.0004% by mass of γ-Glu-Nva; (3) 0.003% by mass of γ-Glu-Abu whose kokumi-imparting activity was identical to that observed for 0.0004% by mass of γ-Glu-Nva. The panelists used in this test were persons who had been engaged in the development of seasonings for foods over not less than one year of the cumulative time period and who could judge that the difference in the titer between γ-Glu-Cys-Gly and γ-Glu-Val-Gly added to a solution having umami/salty taste was about 10 times (while confirming the ability of these persons at regular intervals). The evaluation was carried out at N (the number of panelists used)=9.
However, the results observed for tomato catsup are shown in Table 6 as the typical example thereof.

[3] = Paired comparison sensory test, basil (Labiatae) herb/spice solution; conditions: 0.5% basil solution, N=9
Procedure: More specifically, the sensory evaluation test was carried out according to the following procedures: Commercially available typical herb/spice in powdery form was dispersed in water in a concentration of 0.5% by mass to thus form a herb/spice solution. This solution was admixed with γ-Glu-Nva, γ-Glu-Cys-Gly, or γ-Glu-Abu as a test compound. According to the paired comparison test, the panelists were requested to comparatively evaluate the following three samples and to judge whether “any of them was preferred since it could enhance the flavor and taste of the herb/spice solution without changing the balance between them”: (1) 0.02% by mass of γ-Glu-Cys-Gly whose kokumi-imparting activity was identical to 0.00015% by mass of γ-Glu-Nva; (2) 0.00015% by mass of γ-Glu-Abu, the amount of which was identical to 0.00015% by mass of γ-Glu-Nva; (3) 0.003% by mass of γ-Glu-Abu whose kokumi-imparting activity was identical to that observed for 0.00015% by mass of γ-Glu-Nva. The panelists used in this test were persons who had been engaged in the development of seasonings for foods over not less than one year of the cumulative time period and who could judge that the difference in the titer between γ-Glu-Cys-Gly and γ-Glu-Val-Gly added to a solution having umami/salty taste is about 10 times (while confirming the ability of these persons at regular intervals). The evaluation was carried out at N (the number of panelists used)=9.

For `CCC[C@H](NC(=O)CC[C@H](N)C(=O)O)C(=O)O` [γ-Glu-Nva, γ-L-glutamyl-L-norvaline], the “Sensory Evaluation Profile” value ([1]; 0.0001 g/dL in umami/salty solution) was “Mainly the initial and middle tastes”, the “Intensity of kokumi, Middle/After Taste” value ([1]; 0.0001 g/dL in water with MSG 0.05, IMP 0.05, NaCl 0.5 g/dL) was 2.8 points and the “Intensity of kokumi, Initial Taste” value ([1]; 0.0001 g/dL in water with MSG 0.05, IMP 0.05, NaCl 0.5 g/dL, scale control 0, strong 3, very strong 5) was 3.6 points. The “No. of Panelists who judged γ-Glu-Nva rather preferred” value ([2]; 0.0004 wt % γ-Glu-Nva vs 0.0004 wt % γ-Glu-Abu) was 9/9**, the “No. of Panelists who judged γ-Glu-Nva rather preferred” value ([2]; 0.0004 wt % γ-Glu-Nva vs 0.003 wt % γ-Glu-Abu) was 9/9** and the “No. of Panelists who judged γ-Glu-Nva rather preferred” value ([2]; 0.0004 wt % γ-Glu-Nva vs 0.02 wt % γ-Glu-Cys-Gly) was 9/9**. The “No. of Panelists who judged γ-Glu-Nva rather preferred” value ([3]; 0.00015 wt % γ-Glu-Nva vs 0.00015 wt % γ-Glu-Abu, significant level of 1%) was 9/9**, the “No. of Panelists who judged γ-Glu-Nva rather preferred” value ([3]; 0.00015 wt % γ-Glu-Nva vs 0.003 wt % γ-Glu-Abu, significant level of 5%) was 8/9*** and the “No. of Panelists who judged γ-Glu-Nva rather preferred” value ([3]; 0.00015 wt % γ-Glu-Nva vs 0.02 wt % γ-Glu-Cys-Gly, significant level of 1%) was 9/9**.
